Test results reported in ChEMBL document CHEMBL2034890, “Polyhydroxylated macrolides from Seimatosporium discosioides and their effects on the activation of peroxisome proliferator-activated receptor gamma” (J Nat Prod, 2012).
Active and inactive are the calls of the source. The rule behind the calls is not given here.

How the values were obtained:
Format in all cases: functional, cell-based
[1] = target: T1, Peroxisome proliferator-activated receptor delta (Homo sapiens) (UniProt Q03181); assay: Agonist activity at human recombinant PPARbeta expressed in CHO cells cotransfected with pGL3-PPRE3-TK-luc reporter assessed as beta-galactosidase activity at 20 uM after 24 hrs by luciferase based transactivation assay
T1 sequence (whole entry): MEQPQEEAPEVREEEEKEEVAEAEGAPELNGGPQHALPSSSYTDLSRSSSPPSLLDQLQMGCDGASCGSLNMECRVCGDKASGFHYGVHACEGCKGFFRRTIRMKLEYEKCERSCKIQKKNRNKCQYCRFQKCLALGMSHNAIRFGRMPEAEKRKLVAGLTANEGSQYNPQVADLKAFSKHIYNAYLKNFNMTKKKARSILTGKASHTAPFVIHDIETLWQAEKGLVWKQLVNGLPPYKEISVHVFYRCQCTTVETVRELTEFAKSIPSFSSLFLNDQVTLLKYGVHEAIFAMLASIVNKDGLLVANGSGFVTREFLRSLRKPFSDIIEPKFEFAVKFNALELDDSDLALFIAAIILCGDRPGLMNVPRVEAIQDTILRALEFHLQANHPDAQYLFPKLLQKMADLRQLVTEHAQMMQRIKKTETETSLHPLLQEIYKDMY

[2] = target: T2, Peroxisome proliferator-activated receptor alpha (Homo sapiens) (UniProt Q07869); assay: Agonist activity at human recombinant PPARalpha expressed in CHO cells cotransfected with pGL3-PPRE3-TK-luc reporter assessed as beta-galactosidase activity at 20 uM after 24 hrs by luciferase based transactivation assay
T2 sequence (whole entry): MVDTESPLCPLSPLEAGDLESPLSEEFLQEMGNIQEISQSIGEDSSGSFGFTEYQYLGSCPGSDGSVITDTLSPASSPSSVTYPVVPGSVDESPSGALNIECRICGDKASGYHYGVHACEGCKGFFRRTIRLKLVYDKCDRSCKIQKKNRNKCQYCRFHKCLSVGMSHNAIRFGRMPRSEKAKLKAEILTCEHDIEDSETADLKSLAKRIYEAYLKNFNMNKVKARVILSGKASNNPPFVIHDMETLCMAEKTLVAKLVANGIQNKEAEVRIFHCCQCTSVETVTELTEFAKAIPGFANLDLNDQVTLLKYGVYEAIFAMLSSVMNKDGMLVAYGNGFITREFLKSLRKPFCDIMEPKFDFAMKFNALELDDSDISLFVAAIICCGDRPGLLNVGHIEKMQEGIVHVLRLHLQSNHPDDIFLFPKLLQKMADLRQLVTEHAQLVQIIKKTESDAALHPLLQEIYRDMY

[3] = target: T3, Peroxisome proliferator-activated receptor gamma (Homo sapiens) (UniProt P37231); assay: (§1) Agonist activity at human recombinant PPARgamma expressed in CHO cells cotransfected with pGL3-PPRE3-TK-luc reporter assessed as beta-galactosidase activity at after 24 hrs by luciferase based transactivation assay
T3 sequence (whole entry): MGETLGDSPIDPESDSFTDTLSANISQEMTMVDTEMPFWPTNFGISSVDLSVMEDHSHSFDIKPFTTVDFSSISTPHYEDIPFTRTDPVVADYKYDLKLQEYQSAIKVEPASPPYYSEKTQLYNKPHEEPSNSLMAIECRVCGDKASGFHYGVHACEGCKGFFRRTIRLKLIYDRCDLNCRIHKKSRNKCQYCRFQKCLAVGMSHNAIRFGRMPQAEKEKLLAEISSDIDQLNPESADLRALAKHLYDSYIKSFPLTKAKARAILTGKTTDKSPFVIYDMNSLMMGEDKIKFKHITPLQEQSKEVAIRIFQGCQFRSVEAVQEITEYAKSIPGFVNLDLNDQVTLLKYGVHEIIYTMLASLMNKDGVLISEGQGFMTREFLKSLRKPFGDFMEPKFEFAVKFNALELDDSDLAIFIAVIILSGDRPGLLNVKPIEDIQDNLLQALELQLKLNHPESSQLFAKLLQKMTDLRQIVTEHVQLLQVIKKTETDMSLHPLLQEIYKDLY

[4] = target: T3, Peroxisome proliferator-activated receptor gamma (Homo sapiens); assay: Agonist activity at PPARgamma in human HepG2 cells assessed as change in stearoyl CoA desaturase 1 mRNA at 0.5 to 12.5 uM by RT-PCR analysis
[5] = target: T3, Peroxisome proliferator-activated receptor gamma (Homo sapiens); assay: Agonist activity at PPARgamma in human HepG2 cells assessed as downregulation of glucose-6-phosphatase mRNA at 0.5 to 12.5 uM by RT-PCR analysis
[6] = target: T4, Peroxisome proliferator-activated receptor gamma (Homo sapiens, UniProt P37231); assay: as §1
T4 sequence (P37231 whole entry): T3 sequence (whole entry)

[7] = target: T3, Peroxisome proliferator-activated receptor gamma (Homo sapiens); assay: Agonist activity at PPARgamma in human HepG2 cells assessed as up-regulation of PPARgamma mRNA expression by RT-PCR analysis
[8] = target: T3, Peroxisome proliferator-activated receptor gamma (Homo sapiens); assay: Agonist activity at PPARgamma in human HepG2 cells assessed as downregulation of phosphoenolpyruvate carboxykinase mRNA at 0.5 to 12.5 uM by RT-PCR analysis
[9] = target: T3, Peroxisome proliferator-activated receptor gamma (Homo sapiens); assay: Agonist activity at PPARgamma in human HepG2 cells assessed as up-regulation of PPARgamma mRNA at 0.5 to 12.5 uM by RT-PCR analysis relative to control

| Structure (SMILES) | Activity [1] | Activity [2] | Activity [3] | Activity [4] | Activity [5] | EC50 [6] [µM] | Activity [7] | Activity [8] | fold change (FC) [9] |
| --- | --- | --- | --- | --- | --- | --- | --- | --- | --- |
| COc1cc(O)c2c(c1)C(=O)c1cocc1C2=O | inactive | inactive | inactive |  |  |  |  |  |  |
| COc1cc(O)c2c(c1)[C@@H](O)[C@@]1(O)COC[C@H]1C2=O | inactive | inactive | inactive |  |  |  |  |  |  |
| CCCCCCCCC[C@H]1CC[C@H](O)/C=C/[C@H](O)CC(=O)O1 [SEIMATOPOLIDE B] | inactive | inactive |  |  |  | 11.1 |  |  |  |

Other lines, results leading:

| Activity [1] | Activity [2] | Activity [3] | Activity [4] | Activity [5] | EC50 [6] [µM] | Activity [7] | Activity [8] | fold change (FC) [9] | Structure (SMILES) |
| --- | --- | --- | --- | --- | --- | --- | --- | --- | --- |
| inactive | inactive | inactive |  |  |  |  |  |  | COc1cc(O)c2c(c1)[C@@H](O)[C@@]13CO[C@@H](O)[C@@]1(O3)C2=O |
| inactive | inactive |  | inactive | Active | 1.15 | Dose-dependent effect | Active | 2 | CCCCCCCCC[C@H]1C[C@@H](O)[C@H](O)/C=C/[C@H](O)CC(=O)O1 [SEIMATOPOLIDE A] |
